Biological target: T1, recombinantly expressed OR2AT4 (Homo sapiens, UniProt A6NND4)
T1 construct: expressed in transfected cells; host or cells: Hana3A cells, transient transfection with pcDNA3-OR2AT4 by the calcium phosphate method
T1 sequence (A6NND4 1-320): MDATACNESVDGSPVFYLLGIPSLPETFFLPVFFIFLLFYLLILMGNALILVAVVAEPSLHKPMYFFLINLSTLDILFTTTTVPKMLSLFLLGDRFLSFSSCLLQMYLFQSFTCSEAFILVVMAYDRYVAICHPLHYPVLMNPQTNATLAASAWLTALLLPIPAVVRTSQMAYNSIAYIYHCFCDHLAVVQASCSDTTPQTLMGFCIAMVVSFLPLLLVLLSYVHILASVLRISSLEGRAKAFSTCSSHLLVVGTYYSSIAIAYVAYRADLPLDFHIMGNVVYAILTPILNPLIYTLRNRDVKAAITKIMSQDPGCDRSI
Assay: Calcium imaging of transiently OR2AT4-transfected Hana3A cells
Format: cell-based
Details: for response rate of the Hana3A cells relative to the Ringer control: 1 mM odorant, 20 s stimulation, OR2AT4-transfected Hana3A cells; for agonist or antagonist to heterologously expressed OR2AT4: summary of calcium imaging and luciferase results
Experimental: Hana3A cells expressing stable endogenous olfactory transduction factors, which specifically target the incorporation of ORs into the cell membrane and thus improve activation capacity, were used as a heterologous expression system. Moreover, the 20 first N-terminal amino acids of rhodopsins (Rho-tag) were added before the N-terminus of the coding sequence of the OR, also in order to support heterologous expression.
A method established at the Department of Cell Physiology of Ruhr University Bochum for deorphanization studies is calcium imaging, in which activation of an OR by an odorant is visualized by a change in the intracellular calcium concentration of transfected cells using a fluorescent dye [cf. Wetzel et al. in: J. Neurosci. 19, pp. 7426-7433 (1999); Spehr et al. in: Science 299, pp. 2054-2058 (2003); Neuhaus et al. in: J. Biol. Chem. 284, pp. 16218-16225 (2009)]. In this method, the Hana3A cells are briefly (20 s) stimulated with an odorant and selected for odorant screenings of high concentrations (up to 1 mM) in order to confirm activation of ORs weakly expressed in Hana3A cells.
The activation of OR2AT4 by Sandalore® was first investigated by the calcium imaging method.
Odorants can not only activate a receptor, but can also act as antagonists to an OR.
Determination of receptive field of recombinantly expressed OR2AT4. […] As a control, untransfected Hana3A cells were simulated with Sandalore®. 100 μM of ATP was used at the end of each measurement as a positive control stimulus. […] The mean response rate including standard error of the cells is shown relative to the Ringer control. […] Isobornyl.: isobornyl cyclohexanol; S. öl: sandalwood oil. Kruskal-Wallis test with multiple comparison. *: p<0.05. […] Significance was determined between Hana3A cells transfected with OR2AT4-pcDNA3 and pcDNA3 without an insert. The dots show mean normalized luciferase-activity including standard error. Mann-Whitney U test; n=3 experiments. *: p<0.05; **: p<0.01; ***: p<0.001.
Antagonists of recombinantly expressed OR2AT4. […] 100 μM of ATP was used at the end of each measurement as a positive control stimulus. […] The mean response rate including standard error of the cells is shown relative to the Ringer control. Number of measurements: Ringer (23), Sandalore® (22), Sandalore®+dimetol (11), dimetol (11), Phenirat (14), Sandalore®+Phenirat (22), Oxyphenylon (12), and Sandalore®+Oxyphenylon (20). S: Sandalore®. Kruskal-Wallis test with multiple comparison. *: p<0.05.

SMILES	response rate of the Hana3A cells relative to the Ringer control	agonist or antagonist to heterologously expressed OR2AT4	agonist or antagonist to heterologously expressed OR2AT4 (listed as Brahmanol)	effect on Sandalore-induced calcium signals in coapplication (coapplication with Sandalore 1:1, 1 mM respectively)	effect of the odorant alone on the Hana3A cells (odorant alone, 1 mM)	agonist or antagonist to heterologously expressed OR2AT4 (listed as Sandalore)
CC1=CCC(CCC(C)CO)C1(C)C (stereo not drawn) [Brahmanol®]	increased response rate in calcium imaging experiments, although the increase was not significant	agonists	only agonists	–	–	–
CC(=O)CCc1ccc(O)cc1 [Oxyphenylon]	–	antagonists	–	significantly reduced	no effect	–
CC1=CCC(CCC(C)C(C)O)C1(C)C (stereo not drawn) [Sandalore®]	significantly increased response rate	agonists	–	–	–	only agonists

From patent publication US10835500B2, “Medicament for accelerated wound healing” (Symrise AG, priority 2014, dated 2020)
